Assay results published in ChEMBL document CHEMBL6182925 (J Med Chem, 2025).
Converted amounts (≈) assume the structure as drawn. “And” between values parts separate entries of the source, which are not always exact repeats. Identical values can stand only once. The source made the active and inactive calls. The rule behind the calls is not given here.

Key:
BaF3 [1] = assay: Antitumor activity against mouse BaF3 cells harboring TPR-D1228N mutant cells allografted in athymic BALB/c nude mouse at 60 mg/kg, po bid treated for 10 days relative to control; type: functional; details: BaF3, 240 h, time 10 day, read-out: TGI
[2] = Antitumor activity against human LU2503 cells xenografted in athymic BALB/c nude mouse at 60 mg/kg, po bid treated for 14 days relative to control; type: functional; details: LU2503, 336 h, time 14 day, read-out: TGI
Mus musculus [3] = assay: In vivo inhibition of MET phosphorylation in human LU2503 cells xenografted in athymic BALB/c nude mouse at 20 to 60 mg/kg, po measured after 12 hrs post-dose; type: functional, organism-based; details: dose 20-60 mg/kg
BaF3 [4] = assay: cells; details: Mus musculus, BaF3, 72 h
[5] = Oral bioavailability in male Sprague-Dawley rat at 10 mg/kg; type: ADME, organism-based; details: in vivo
[6] = molecular target: T1, Alpha-2A adrenergic receptor (Homo sapiens) (UniProt P08913); assay: Inhibition of alpha 2A adrenergic receptor (unknown origin) at 10 uM by CEREP analysis relative to control
T1 sequence (whole entry): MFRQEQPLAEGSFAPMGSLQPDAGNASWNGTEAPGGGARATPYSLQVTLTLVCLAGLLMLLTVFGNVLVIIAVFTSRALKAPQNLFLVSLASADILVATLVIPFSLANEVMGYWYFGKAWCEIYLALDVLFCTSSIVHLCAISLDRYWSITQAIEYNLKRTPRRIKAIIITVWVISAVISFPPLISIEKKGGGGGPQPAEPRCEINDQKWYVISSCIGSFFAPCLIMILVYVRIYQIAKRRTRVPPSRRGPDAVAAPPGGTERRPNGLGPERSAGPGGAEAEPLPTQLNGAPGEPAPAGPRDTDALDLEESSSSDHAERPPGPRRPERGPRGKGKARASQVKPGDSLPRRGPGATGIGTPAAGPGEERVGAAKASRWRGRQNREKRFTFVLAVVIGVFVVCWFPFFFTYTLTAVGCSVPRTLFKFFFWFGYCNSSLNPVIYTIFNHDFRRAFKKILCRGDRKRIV

PXR = PXR (Homo sapiens, UniProt O75469); assay: Induction of PXR (unknown origin) assessed as fold increase in activity at 1 uM relative to control; type: toxicity; details: read-out: FC
Sequence of PXR (O75469 whole entry): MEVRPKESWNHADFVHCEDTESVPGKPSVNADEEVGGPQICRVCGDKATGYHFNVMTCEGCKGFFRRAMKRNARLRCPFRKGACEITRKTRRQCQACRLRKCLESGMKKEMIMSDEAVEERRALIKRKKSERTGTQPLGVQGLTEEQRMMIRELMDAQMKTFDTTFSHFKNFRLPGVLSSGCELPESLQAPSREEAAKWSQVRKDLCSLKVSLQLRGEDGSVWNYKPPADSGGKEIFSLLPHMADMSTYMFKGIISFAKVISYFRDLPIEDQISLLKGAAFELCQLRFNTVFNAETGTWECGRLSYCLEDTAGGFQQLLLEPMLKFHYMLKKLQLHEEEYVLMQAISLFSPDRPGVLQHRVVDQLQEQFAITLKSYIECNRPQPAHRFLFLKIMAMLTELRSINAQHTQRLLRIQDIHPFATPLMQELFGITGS

[7] = Toxicity in dog assessed as drug tolerance measured for 28 days; parameters: species or system Canis lupus familiaris; details: in vivo, 672 h, time 28 day
[8] = molecular target: cGMP-inhibited 3',5'-cyclic phosphodiesterase 3A (Homo sapiens) (UniProt Q14432); assay: Inhibition of PDE3A (unknown origin) at 10 uM by CEREP analysis relative to control
Sequence of cGMP-inhibited 3',5'-cyclic phosphodiesterase 3A (Homo sapiens) (Q14432 whole entry): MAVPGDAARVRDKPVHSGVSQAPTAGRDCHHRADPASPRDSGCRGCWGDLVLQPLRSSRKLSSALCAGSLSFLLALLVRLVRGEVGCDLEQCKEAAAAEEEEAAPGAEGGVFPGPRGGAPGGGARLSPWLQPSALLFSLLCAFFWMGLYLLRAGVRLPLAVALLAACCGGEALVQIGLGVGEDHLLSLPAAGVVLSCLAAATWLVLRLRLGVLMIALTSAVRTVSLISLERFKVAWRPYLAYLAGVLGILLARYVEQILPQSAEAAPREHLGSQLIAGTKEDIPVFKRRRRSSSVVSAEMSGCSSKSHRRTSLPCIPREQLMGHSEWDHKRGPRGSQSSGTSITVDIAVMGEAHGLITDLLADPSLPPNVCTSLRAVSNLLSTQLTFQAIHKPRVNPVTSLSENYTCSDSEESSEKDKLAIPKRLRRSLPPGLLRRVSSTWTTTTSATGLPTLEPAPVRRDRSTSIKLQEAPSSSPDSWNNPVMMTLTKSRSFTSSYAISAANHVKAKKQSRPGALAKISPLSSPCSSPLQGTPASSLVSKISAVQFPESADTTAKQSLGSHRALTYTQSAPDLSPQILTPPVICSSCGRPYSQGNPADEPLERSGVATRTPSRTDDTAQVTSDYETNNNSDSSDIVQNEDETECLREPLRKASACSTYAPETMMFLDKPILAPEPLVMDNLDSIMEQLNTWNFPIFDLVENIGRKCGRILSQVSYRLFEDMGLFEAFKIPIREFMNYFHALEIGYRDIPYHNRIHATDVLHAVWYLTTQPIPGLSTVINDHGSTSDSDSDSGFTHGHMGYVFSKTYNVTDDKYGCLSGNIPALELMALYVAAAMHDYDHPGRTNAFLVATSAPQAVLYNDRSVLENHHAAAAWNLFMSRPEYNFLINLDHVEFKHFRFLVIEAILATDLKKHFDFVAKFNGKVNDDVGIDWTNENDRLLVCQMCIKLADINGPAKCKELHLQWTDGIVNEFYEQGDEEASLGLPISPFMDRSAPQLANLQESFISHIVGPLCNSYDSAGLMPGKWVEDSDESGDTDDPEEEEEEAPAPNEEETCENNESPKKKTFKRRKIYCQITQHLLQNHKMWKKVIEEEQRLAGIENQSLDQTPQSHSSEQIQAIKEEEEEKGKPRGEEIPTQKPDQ

[9] = molecular target: Sodium-dependent serotonin transporter (Homo sapiens) (UniProt P31645); assay: Inhibition of SERT (unknown origin) at 10 uM by CEREP analysis relative to control
hERG = hERG (Homo sapiens, UniProt Q12809); assay: Inhibition of hERG; type: toxicity
Sequence of hERG (Q12809 whole entry): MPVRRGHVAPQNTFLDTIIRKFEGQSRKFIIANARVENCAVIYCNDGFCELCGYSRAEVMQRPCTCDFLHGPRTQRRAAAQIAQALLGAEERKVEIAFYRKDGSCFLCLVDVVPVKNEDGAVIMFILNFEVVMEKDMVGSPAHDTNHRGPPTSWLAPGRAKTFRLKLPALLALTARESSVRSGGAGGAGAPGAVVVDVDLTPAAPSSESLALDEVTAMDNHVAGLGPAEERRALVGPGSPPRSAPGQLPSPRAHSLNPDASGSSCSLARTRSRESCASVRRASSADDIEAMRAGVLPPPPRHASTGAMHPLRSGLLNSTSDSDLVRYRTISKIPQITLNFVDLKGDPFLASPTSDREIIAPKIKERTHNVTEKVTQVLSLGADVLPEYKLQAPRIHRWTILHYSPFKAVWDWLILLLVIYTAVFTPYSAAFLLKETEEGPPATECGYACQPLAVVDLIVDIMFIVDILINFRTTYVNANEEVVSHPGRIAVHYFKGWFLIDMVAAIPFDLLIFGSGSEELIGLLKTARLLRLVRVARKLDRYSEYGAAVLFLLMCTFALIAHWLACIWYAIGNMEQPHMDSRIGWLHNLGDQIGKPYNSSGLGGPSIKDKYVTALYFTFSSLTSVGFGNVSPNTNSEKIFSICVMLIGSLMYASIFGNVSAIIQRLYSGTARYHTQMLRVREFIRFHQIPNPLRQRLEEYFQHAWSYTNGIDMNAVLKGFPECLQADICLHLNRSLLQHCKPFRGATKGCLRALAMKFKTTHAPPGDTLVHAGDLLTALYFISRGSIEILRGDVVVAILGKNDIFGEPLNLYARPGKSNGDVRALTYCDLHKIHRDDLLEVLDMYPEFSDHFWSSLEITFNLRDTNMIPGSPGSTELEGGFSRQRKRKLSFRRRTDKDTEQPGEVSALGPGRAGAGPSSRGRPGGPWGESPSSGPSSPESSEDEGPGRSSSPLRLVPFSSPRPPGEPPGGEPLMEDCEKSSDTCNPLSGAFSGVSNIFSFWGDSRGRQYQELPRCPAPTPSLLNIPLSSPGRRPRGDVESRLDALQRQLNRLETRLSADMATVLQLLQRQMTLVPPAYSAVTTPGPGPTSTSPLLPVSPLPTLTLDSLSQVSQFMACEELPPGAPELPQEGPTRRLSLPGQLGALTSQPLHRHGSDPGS

BaF3 [10] = assay: cells; details: Mus musculus, BaF3, 72 h; remark: listed apart in the source
Mus musculus [11] = assay: In vivo inhibition of MET phosphorylation in human LU2503 cells xenografted in athymic BALB/c nude mouse administered orally measured after 1 hr post-dose; type: functional, organism-based; details: dose 2-60 mg/kg, route po
BaF3 [12] = assay: cells; details: Mus musculus, BaF3, 72 h; remark: listed apart in the source
BaF3 [13] = assay: Antitumor activity against mouse BaF3 cells harboring TPR-D1228N mutant cells allografted in athymic BALB/c nude mouse at 2 mg/kg, po bid treated for 10 days relative to control; type: functional; details: BaF3, 240 h, time 10 day, read-out: TGI
EBC-1 = assay: Antitumor activity against human EBC-1 cells xenografted in athymic BALB/c nude mouse at 60 mg/kg, po bid treated for 21 days relative to control; type: functional; details: EBC-1, 504 h, time 21 day, read-out: TGI
BaF3 [14] = assay: Antitumor activity against mouse BaF3 cells harboring TPR-D1228N mutant cells allografted in athymic BALB/c nude mouse at 20 mg/kg, po bid treated for 10 days relative to control; type: functional; details: BaF3, 240 h, time 10 day, read-out: TGI
Mus musculus [15] = assay: In vivo inhibition of MET phosphorylation in human EBC-1 cells xenografted in athymic BALB/c nude mouse administered orally measured after 1 hr post-dose; type: functional, organism-based; details: dose 2-60 mg/kg, route po
[16] = Kinetic solubility of compound at pH 2; type: physicochemical; details: buffer, read-out: Kinetic_solubility
[17] = molecular target: 3',5'-cyclic-AMP phosphodiesterase 4D (Homo sapiens) (UniProt Q08499); assay: Inhibition of PDE4D2 (unknown origin) at 10 uM by CEREP analysis relative to control
Sequence of 3',5'-cyclic-AMP phosphodiesterase 4D (Homo sapiens) (Q08499 whole entry): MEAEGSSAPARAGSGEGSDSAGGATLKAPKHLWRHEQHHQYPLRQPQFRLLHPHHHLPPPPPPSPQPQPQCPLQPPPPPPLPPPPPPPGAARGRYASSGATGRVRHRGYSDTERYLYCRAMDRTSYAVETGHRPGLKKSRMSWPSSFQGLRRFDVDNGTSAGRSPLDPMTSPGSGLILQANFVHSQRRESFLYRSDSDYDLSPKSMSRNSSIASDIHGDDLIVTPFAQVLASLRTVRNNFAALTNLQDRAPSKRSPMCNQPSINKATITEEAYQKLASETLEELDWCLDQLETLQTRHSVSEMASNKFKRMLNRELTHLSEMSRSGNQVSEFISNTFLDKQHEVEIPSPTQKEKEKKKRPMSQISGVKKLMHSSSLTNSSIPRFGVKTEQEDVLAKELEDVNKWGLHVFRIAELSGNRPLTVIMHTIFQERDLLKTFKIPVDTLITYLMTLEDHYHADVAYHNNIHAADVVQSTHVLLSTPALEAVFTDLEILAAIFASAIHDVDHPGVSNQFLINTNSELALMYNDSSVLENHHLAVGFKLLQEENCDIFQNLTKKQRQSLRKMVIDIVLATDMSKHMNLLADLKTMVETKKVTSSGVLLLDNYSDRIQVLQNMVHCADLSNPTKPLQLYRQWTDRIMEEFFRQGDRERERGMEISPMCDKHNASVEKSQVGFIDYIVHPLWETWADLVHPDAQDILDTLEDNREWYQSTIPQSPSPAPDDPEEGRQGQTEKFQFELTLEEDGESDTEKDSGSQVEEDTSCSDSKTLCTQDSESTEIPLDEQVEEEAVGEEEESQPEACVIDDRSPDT

[18] = AUCfree in rat measured for 28 days; type: ADME; details: in vivo, 672 h, time 28 day
[19] = molecular target: Macrophage-stimulating protein receptor (Homo sapiens) (UniProt Q04912); assay: Inhibition of wild-type RON (unknown origin) at 100 nM by kinome selectivity analysis relative to control
Sequence of Macrophage-stimulating protein receptor (Homo sapiens) (Q04912 25-304 limits assumed): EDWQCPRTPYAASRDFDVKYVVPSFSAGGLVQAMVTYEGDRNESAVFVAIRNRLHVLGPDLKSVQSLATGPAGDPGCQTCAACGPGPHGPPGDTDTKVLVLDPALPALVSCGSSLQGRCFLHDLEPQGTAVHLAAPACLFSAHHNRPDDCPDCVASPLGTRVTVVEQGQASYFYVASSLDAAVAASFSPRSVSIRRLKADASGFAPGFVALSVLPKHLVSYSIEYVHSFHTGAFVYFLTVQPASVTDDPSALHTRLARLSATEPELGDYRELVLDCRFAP
Sequence of Macrophage-stimulating protein receptor (Homo sapiens) (Q04912 310-1400 limits assumed): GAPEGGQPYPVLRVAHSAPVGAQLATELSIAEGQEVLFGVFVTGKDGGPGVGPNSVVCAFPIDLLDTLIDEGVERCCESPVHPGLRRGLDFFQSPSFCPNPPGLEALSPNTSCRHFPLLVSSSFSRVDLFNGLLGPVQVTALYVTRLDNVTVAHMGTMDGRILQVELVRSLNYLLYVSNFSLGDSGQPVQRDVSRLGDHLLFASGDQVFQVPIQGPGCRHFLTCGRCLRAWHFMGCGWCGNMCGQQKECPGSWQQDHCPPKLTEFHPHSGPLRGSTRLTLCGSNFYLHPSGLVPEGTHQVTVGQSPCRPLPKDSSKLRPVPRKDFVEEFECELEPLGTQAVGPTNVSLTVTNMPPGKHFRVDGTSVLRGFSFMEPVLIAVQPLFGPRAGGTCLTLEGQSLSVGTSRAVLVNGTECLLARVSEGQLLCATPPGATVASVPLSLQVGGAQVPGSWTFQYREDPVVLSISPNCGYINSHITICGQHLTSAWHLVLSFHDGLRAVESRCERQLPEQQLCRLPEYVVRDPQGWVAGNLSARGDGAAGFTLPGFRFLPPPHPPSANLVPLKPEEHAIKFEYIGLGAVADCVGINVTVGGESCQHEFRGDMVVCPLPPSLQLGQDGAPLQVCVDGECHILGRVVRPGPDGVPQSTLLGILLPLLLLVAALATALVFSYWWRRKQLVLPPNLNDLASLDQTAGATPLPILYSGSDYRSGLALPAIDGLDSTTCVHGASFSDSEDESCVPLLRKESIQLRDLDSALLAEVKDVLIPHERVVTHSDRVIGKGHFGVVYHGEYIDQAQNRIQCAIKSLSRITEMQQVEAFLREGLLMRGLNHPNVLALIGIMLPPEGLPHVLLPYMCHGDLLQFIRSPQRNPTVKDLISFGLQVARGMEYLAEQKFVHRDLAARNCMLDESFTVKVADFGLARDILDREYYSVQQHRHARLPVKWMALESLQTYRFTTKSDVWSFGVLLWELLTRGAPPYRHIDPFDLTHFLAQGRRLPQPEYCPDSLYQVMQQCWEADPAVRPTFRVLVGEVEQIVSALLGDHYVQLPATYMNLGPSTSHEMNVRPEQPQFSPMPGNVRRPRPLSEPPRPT

BaF3 [20] = test system: BaF3
Homo sapiens = species on record: Homo sapiens; assay: Inhibition of c-MET G1163R mutant (unknown origin) at 100 nM in presence of ATP by HotSpot Kinome Selectivity analysis
[21] = molecular target: Hepatocyte growth factor receptor (Homo sapiens, UniProt P08581, D1228N); assay: Inhibition of N-terminal GST-tagged recombinant human c-MET D1228N mutant (956 to end residues) extracted from baculovirus infected Sf9 cells using 5-FAM-KKKKEEIYFFF-CONH2 as substrate preincubated for 30 mins followed by ATP addition measured after 60 mins by fluorescence-based microfluidic mobility shift assay
BaF3 [22] = assay: cells; details: Mus musculus, BaF3, 72 h; remark: listed apart in the source
L-type calcium channel = L-type calcium channel (Homo sapiens, UniProt O60840+Q01668+Q13698+Q13936); assay: Inhibition of Calcium channel L-type (unknown origin) at 10 uM by CEREP analysis relative to control; type: protein assay

Compound: COc1cc2nccc(Oc3c(F)cc(NC(=O)c4cnccc4OC)cc3F)c2cc1O[C@@H](C)CO
- inhibition in vivo at 60 mg/kg (BaF3 [1]): 128%
- inhibition in vivo at 60 mg/kg [2]: 113%
- inhibition (Mus musculus [3]): Active
- EC50 (BaF3 [4]): 51 nM
- bioavailability [5]: 100%
- inhibition [6]: 6%
- fold induction at 1 µM (PXR): < 1.5
- Activity [7]: Non-toxic
- inhibition [8]: 16%
- inhibition [9]: 1%
- IC20 (hERG): 10000 nM
- EC50 (BaF3 [10]): 9.1 nM
- inhibition (Mus musculus [11]): Dose-dependent-effect
- EC50 (BaF3 [12]): 538 nM
- inhibition in vivo at 2 mg/kg (BaF3 [13]): 26%
- inhibition in vivo at 60 mg/kg (EBC-1): 110%
- inhibition in vivo at 20 mg/kg (BaF3 [14]): 89%
- inhibition (Mus musculus [15]): Dose-dependent-effect
- solubility kinetic [16]: 288 µM (≈ 147 µg/mL)
- inhibition [17]: 65%
- fAUC [18]: 5100 ng·h/mL
- inhibition [19]: > 90%
- EC50 (BaF3 [20]): 11 nM and 5.1 nM
- inhibition (Homo sapiens): 63%
- IC50 [21]: 0.2 nM
- EC50 (BaF3 [22]): 0.7 nM
- inhibition at 10 µM (L-type calcium channel): -4%
